Data as given in ChEMBL document CHEMBL1150006, “Synthesis of new imidazo[1,2-b]pyridazine isosteres of potent imidazo[4,5-b]pyridine angiotensin II antagonists” (Bioorg Med Chem Lett, 1994).

How the values were obtained:
[1] = target: T1, Type-1 angiotensin II receptor (Oryctolagus cuniculus, UniProt P34976); experiment: In vitro binding affinity evaluated by its ability to displace the specific binding ligand 125I-SAR1, Ile8-AII from Angiotensin II receptor, type 1 in rabbit aorta membrane; format: cell membranes
T1 sequence (P34976 whole entry): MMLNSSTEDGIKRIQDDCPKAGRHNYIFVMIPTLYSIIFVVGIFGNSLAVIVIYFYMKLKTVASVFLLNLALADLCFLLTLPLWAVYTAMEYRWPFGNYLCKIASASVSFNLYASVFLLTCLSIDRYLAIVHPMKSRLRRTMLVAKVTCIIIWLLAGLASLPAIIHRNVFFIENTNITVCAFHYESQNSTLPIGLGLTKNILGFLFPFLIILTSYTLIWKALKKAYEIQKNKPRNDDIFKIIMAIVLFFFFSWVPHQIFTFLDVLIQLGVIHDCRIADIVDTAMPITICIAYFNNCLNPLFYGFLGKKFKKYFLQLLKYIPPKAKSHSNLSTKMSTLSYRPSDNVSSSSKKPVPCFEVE

[2] = species on record: Rattus norvegicus; experiment: Percent inhibition exceeded duration of 6 hours; format: functional
[3] = target: T2, Type-2 angiotensin II receptor (Rattus norvegicus, UniProt P35351); experiment: In vitro binding affinity at AT2 receptor determined by its ability to displace the specific binding ligand [125I]-Sar1, Ile8-AII from rat brain membrane
T2 sequence (P35351 whole entry): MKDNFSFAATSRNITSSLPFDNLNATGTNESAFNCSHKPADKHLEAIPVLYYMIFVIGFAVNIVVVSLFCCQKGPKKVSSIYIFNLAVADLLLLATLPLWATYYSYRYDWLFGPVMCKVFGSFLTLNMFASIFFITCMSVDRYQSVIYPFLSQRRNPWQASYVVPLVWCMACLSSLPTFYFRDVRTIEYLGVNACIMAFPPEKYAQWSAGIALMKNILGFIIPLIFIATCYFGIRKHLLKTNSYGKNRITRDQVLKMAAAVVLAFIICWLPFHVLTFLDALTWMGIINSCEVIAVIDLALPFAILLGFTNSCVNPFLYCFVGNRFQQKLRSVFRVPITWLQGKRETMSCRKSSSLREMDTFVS

[4] = system: Rattus norvegicus; experiment: Dose required for more than 90% maximal inhibition of blood pressure response at iv bolus administration in conscious normotensive rats; format: functional

Row | SMILES | IC50 [1] | Inhibition [2] | IC50 [3] | Dose [4]
1 | CCc1nc2c(C)cc(C)nn2c1Cc1ccc(-c2ccccc2S(=O)(=O)NC(=O)c2ccccc2)cc1 | 0.8 nM | – | – | –
2 | CCc1nc2c(C)cc(C)nn2c1Cc1ccc(-c2ccccc2NS(=O)(=O)C(F)(F)F)cc1 | 1.7 nM | – | – | –
3 | CCc1nc2c(C)cc(C)nn2c1Cc1ccc(-c2ccccc2C(=O)O)cc1 | 83 nM | – | – | –
4 | CCc1nc2c(C)cc(C)nn2c1Cc1ccc(-c2ccccc2-c2nn[nH]n2)cc1 | 5.7 nM | >30% | > 10 nM | 1 mg/kg
